Starred links: 1 amine or outer side, 2 acyl side, 3 side chain; linkers in the order of their positions; H or OH if unused. Non-standard residues stand in square brackets, D forms with d. Residues, ends and D or L forms follow the SMILES beside them. *: point of attachment. dAla(cis-4-NHCOPyz-cHex) = N[C@H](C[C@H]1CC[C@@H](NC(=O)c2cnccn2)CC1)C(=O)O; X4 = O=C(N[C@H]1CC[C@@H](C[C@@H](N[*:1])C(=O)[*:2])CC1)c1cccnc1; X6 = O=C(N[C@H]1CC[C@H](C[C@@H](N[*:1])C(=O)[*:2])CC1)c1ccccn1; X7 = O=C(N[C@H]1CC[C@H](C[C@@H](N[*:1])C(=O)[*:2])CC1)c1cccnc1; dPhe(3,4-Cl2) = N[C@H](Cc1ccc(Cl)c(Cl)c1)C(=O)O; dPhe(4-Cl) = N[C@H](Cc1ccc(Cl)cc1)C(=O)O; d2Nal = N[C@H](Cc1ccc2ccccc2c1)C(=O)O; X11 = O=C([C@H](N[*:1])c1ccsc1)[*:2]; Lys(iPr) = CC(C)NCCCC[C@H](N)C(=O)O; Lys(Me2) = CN(C)CCCC[C@H](N)C(=O)O; aIle = CC[C@@H](C)[C@H](N)C(=O)O; d3Pal = N[C@H](Cc1cccnc1)C(=O)O; Nicotinoyl = O=C(c1cccnc1)*; Picolinoyl = O=C(c1ccccn1)*; Orn = NCCC[C@H](N)C(=O)O; Abu = CC[C@H](N)C(=O)O; Bz = O=C(c1ccccc1)*
The compounds below were run on anaesthesized rats (assay: wheal test, intradermal injection). Settings: 10 ug peptide intradermally.
Type: in vivo, rat
Design: Wheal (wheal response): unit not given here
Experimental: The antiovulatory activity, AOA, in rats was determined as described by Humphries et al. (12). Antiovulation assays were performed by counting, on estrus, the number of ova shed by 4-day cycling rats after a single sc injection of the LH-RH analogue in corn oil was administered between 12 and 12:30 p.m. on […]. The control rats received 0.3 mL of the vehicle. The wheal test was performed by intradermally injecting 10 ug of peptide in 100 ul of saline into anaesthesized rats, measuring the ideally circular wheal response and calculating the area. The in vitro histamine release test was done as described by Karten et al. (4). A suspension of rat mast cells was added to increasing concentrations of peptide and the mixture was incubated for a few minutes followed by centrifugation to collect the histamine in the supernatant. A PIPES (piperazine-N,N'-bis[2-ethanesulfonic acid]) medium buffered at pH 7.4 containing NaCl 119 mM, KCl 5 mM, PIPES 25 mM, NaOH 40 mM, glucose 5.6 mM, CaCl2 1 mM, and 0.1% bovine serum albumin was used. This was designated as PIPES AC. Peptides were dissolved in double distilled H2 O at a concentration of 2 mg/ml and stored at -20° C. They were thawed just prior to testing, diluted in PIPES AC and prewarmed for five minutes at 37° C. Peptides studied were stable to heating at 56° C. for two hours, and to freezing and thawing.

Row | Structure (SMILES) | Wheal Area
1 | CC(=O)N[C@H](Cc1ccc2ccccc2c1)C(=O)N[C@H](Cc1ccc(Cl)cc1)C(=O)N[C@@H](C(=O)N[C@@H](CO)C(=O)N[C@@H](CCCCNC(=O)c1ccccn1)C(=O)N[C@H](C[C@H]1CC[C@@H](NC(=O)c2cnccn2)CC1)C(=O)N[C@@H](CC(C)C)C(=O)N[C@@H](CCCCNC(C)C)C(=O)N1CCC[C@H]1C(=O)N[C@H](C)C(N)=O)c1ccsc1 [compound 26349] (Ac-[d2Nal][dPhe(4-Cl)][X11]SK(Picolinoyl)[dAla(cis-4-NHCOPyz-cHex)]L[Lys(iPr)]P[dA]-NH2) | 84.6 ± 3.9 mm^2 /10 μg
2 | CC(=O)N[C@H](Cc1ccc2ccccc2c1)C(=O)N[C@H](Cc1ccc(Cl)cc1)C(=O)N[C@H](Cc1cccnc1)C(=O)N[C@@H](CO)C(=O)N[C@@H](CCCCNC(=O)c1ccccn1)C(=O)N[C@H](C[C@H]1CC[C@@H](NC(=O)c2cnccn2)CC1)C(=O)N[C@@H](Cc1ccccc1)C(=O)N[C@@H](CCCCNC(C)C)C(=O)N1CCC[C@H]1C(=O)N[C@H](C)C(N)=O [compound 26366] (Ac-[d2Nal][dPhe(4-Cl)][d3Pal]SK(Picolinoyl)[dAla(cis-4-NHCOPyz-cHex)]F[Lys(iPr)]P[dA]-NH2) | 116.2 ± 3.2 mm^2 /10 μg
3 | CC(=O)N[C@H](Cc1ccc2ccccc2c1)C(=O)N[C@H](Cc1ccc(Cl)c(Cl)c1)C(=O)N[C@H](Cc1cccnc1)C(=O)N[C@@H](CO)C(=O)N[C@@H](CCCCNC(=O)c1ccccn1)C(=O)N[C@H](CCCCNC(=O)c1ccccn1)C(=O)N[C@@H](CC(C)C)C(=O)N[C@@H](CCCCNC(C)C)C(=O)N1CCC[C@H]1C(=O)N[C@H](C)C(N)=O [compound 25807] (Ac-[d2Nal][dPhe(3,4-Cl2)][d3Pal]SK(Picolinoyl)[dK](Picolinoyl)L[Lys(iPr)]P[dA]-NH2) | 139.8 ± 7.1 mm^2 /10 μg
4 | CC(=O)N[C@H](Cc1ccc2ccccc2c1)C(=O)N[C@H](Cc1ccc(Cl)cc1)C(=O)N[C@H](Cc1cccnc1)C(=O)N[C@@H](CO)C(=O)N[C@@H](CCCCNC(=O)c1cccnc1)C(=O)N[C@H](C[C@H]1CC[C@@H](NC(=O)c2cccnc2)CC1)C(=O)N[C@@H](CC(C)C)C(=O)N[C@@H](CCCCNC(C)C)C(=O)N1CCC[C@H]1C(=O)N[C@H](C)C(N)=O [IBR 25648] (Ac-[d2Nal][dPhe(4-Cl)][d3Pal]SK(Nicotinoyl)[X4]L[Lys(iPr)]P[dA]-NH2) | 101.8 ± 4.3 mm^2 /10 μg
5 | CC(=O)N[C@H](Cc1ccc2ccccc2c1)C(=O)N[C@H](Cc1ccc(Cl)cc1)C(=O)N[C@H](Cc1cccnc1)C(=O)N[C@@H](CO)C(=O)N[C@@H](CCCCNC(=O)c1ccccn1)C(=O)N[C@H](C[C@H]1CC[C@@H](NC(=O)c2cnccn2)CC1)C(=O)N[C@@H](CC(C)C)C(=O)N[C@@H](CCCCNC(C)C)C(=O)N1CCC[C@H]1C(=O)N[C@H](C)C(N)=O [IBR 25897] (Ac-[d2Nal][dPhe(4-Cl)][d3Pal]SK(Picolinoyl)[dAla(cis-4-NHCOPyz-cHex)]L[Lys(iPr)]P[dA]-NH2) | 122.8 ± 5.7 mm^2 /10 μg
6 | CC[C@H](NC(=O)[C@@H](CCCCNC(=O)c1ccccn1)NC(=O)[C@H](CCCCNC(=O)c1ccccn1)NC(=O)[C@H](CO)NC(=O)[C@@H](Cc1cccnc1)NC(=O)[C@@H](Cc1ccc(Cl)cc1)NC(=O)[C@@H](Cc1ccc2ccccc2c1)NC(C)=O)C(=O)N[C@@H](CCCNC(=N)N)C(=O)N1CCC[C@H]1C(=O)N[C@H](C)C(N)=O [compound 26346] (Ac-[d2Nal][dPhe(4-Cl)][d3Pal]SK(Picolinoyl)[dK](Picolinoyl)[Abu]RP[dA]-NH2) | 113.2 ± 5.4 mm^2 /10 μg
7 | CC(=O)N[C@H](Cc1ccc2ccccc2c1)C(=O)N[C@H](Cc1ccc(Cl)cc1)C(=O)N[C@H](Cc1cccnc1)C(=O)N[C@@H](CO)C(=O)N[C@@H](CCCCNC(=O)c1ccccn1)C(=O)N[C@H](C[C@H]1CC[C@@H](NC(=O)c2cnccn2)CC1)C(=O)N[C@@H](CC(C)C)C(=O)N[C@@H](CCCCNC(C)C)C(=O)N1CCC[C@H]1C(=O)N[C@H](CO)C(N)=O [compound 26348] (Ac-[d2Nal][dPhe(4-Cl)][d3Pal]SK(Picolinoyl)[dAla(cis-4-NHCOPyz-cHex)]L[Lys(iPr)]P[dS]-NH2) | 122.8 ± 5.7 mm^2 /10 μg
8 | CC(=O)N[C@H](Cc1ccc2ccccc2c1)C(=O)N[C@H](Cc1ccc(Cl)cc1)C(=O)N[C@H](Cc1cccnc1)C(=O)N[C@@H](CO)C(=O)N[C@@H](CCCCNC(=O)c1ccccn1)C(=O)N[C@H](C[C@H]1CC[C@H](NC(=O)c2ccccn2)CC1)C(=O)N[C@@H](CC(C)C)C(=O)N[C@@H](CCCCNC(C)C)C(=O)N1CCC[C@H]1C(=O)N[C@H](C)C(N)=O [IV-3] (Ac-[d2Nal][dPhe(4-Cl)][d3Pal]SK(Picolinoyl)[X6]L[Lys(iPr)]P[dA]-NH2) | 101.0 ± 3.0 mm^2 /10 μg

Same assay, conditions: Table I; 10 ug peptide intradermally

Row | Structure (SMILES) | Wheal
9 | CC(=O)N[C@H](Cc1ccc2ccccc2c1)C(=O)N[C@H](Cc1ccc(Cl)cc1)C(=O)N[C@H](Cc1cccnc1)C(=O)N[C@@H](CO)C(=O)N[C@@H](CCCCNC(=O)c1cccnc1)C(=O)N[C@H](C[C@H]1CC[C@H](NC(=O)c2cccnc2)CC1)C(=O)N[C@@H](CC(C)C)C(=O)N[C@@H](CCCCNC(C)C)C(=O)N1CCC[C@H]1C(=O)N[C@H](C)C(N)=O [compound 25647] (Ac-[d2Nal][dPhe(4-Cl)][d3Pal]SK(Nicotinoyl)[X7]L[Lys(iPr)]P[dA]-NH2) | 119.5 ± 3.2 mm^2 /10
10 | CC(=O)N[C@H](Cc1ccc2ccccc2c1)C(=O)N[C@H](Cc1ccc(Cl)cc1)C(=O)N[C@H](Cc1cccnc1)C(=O)N[C@@H](CO)C(=O)N[C@@H](CCCCNC(=O)c1cccnc1)C(=O)N[C@H](CCCCNC(=O)c1cccnc1)C(=O)N[C@@H](CC(C)C)C(=O)N[C@@H](CCCNC(=N)N)C(=O)N1CCC[C@H]1C(=O)N[C@H](C)C(N)=O [compound 24594] (Ac-[d2Nal][dPhe(4-Cl)][d3Pal]SK(Nicotinoyl)[dK](Nicotinoyl)LRP[dA]-NH2) | 126.2 ± 8.8 mm^2 /10
11 | CC(=O)N[C@H](Cc1ccc2ccccc2c1)C(=O)N[C@H](Cc1ccc(Cl)cc1)C(=O)N[C@H](Cc1cccnc1)C(=O)N[C@@H](CO)C(=O)N[C@@H](CCCCNC(=O)c1ccccn1)C(=O)N[C@H](CCCCNC(=O)c1cccnc1)C(=O)N[C@@H](CC(C)C)C(=O)N[C@@H](CCCCNC(C)C)C(=O)N1CCC[C@H]1C(=O)N[C@H](C)C(N)=O [compound 25510] (Ac-[d2Nal][dPhe(4-Cl)][d3Pal]SK(Picolinoyl)[dK](Nicotinoyl)L[Lys(iPr)]P[dA]-NH2) | 116 ± 3.3 mm^2 /10
12 | CC(=O)N[C@H](Cc1ccc2ccccc2c1)C(=O)N[C@H](Cc1ccc(Cl)cc1)C(=O)N[C@H](Cc1cccnc1)C(=O)N[C@@H](CO)C(=O)N[C@@H](Cc1ccc(O)cc1)C(=O)N[C@H](CCCCNC(=O)c1cccnc1)C(=O)N[C@@H](CC(C)C)C(=O)N[C@@H](CCCN)C(=O)N1CCC[C@H]1C(=O)N[C@H](C)C(N)=O [compound 24748] (Ac-[d2Nal][dPhe(4-Cl)][d3Pal]SY[dK](Nicotinoyl)L[Orn]P[dA]-NH2) | 129.4 mm^2 /10
13 | CC(=O)N[C@H](Cc1ccc2ccccc2c1)C(=O)N[C@H](Cc1ccc(Cl)cc1)C(=O)N[C@H](Cc1cccnc1)C(=O)N[C@@H](CO)C(=O)N[C@@H](Cc1ccc(O)cc1)C(=O)N[C@H](CCCCNC(=O)c1cccnc1)C(=O)N[C@@H](CC(C)C)C(=O)N[C@@H](CCCCN(C)C)C(=O)N1CCC[C@H]1C(=O)N[C@H](C)C(N)=O [compound 24443] (Ac-[d2Nal][dPhe(4-Cl)][d3Pal]SY[dK](Nicotinoyl)L[Lys(Me2)]P[dA]-NH2) | 122.7 mm^2 /10
14 | CC(=O)N[C@H](Cc1ccc2ccccc2c1)C(=O)N[C@H](Cc1ccc(Cl)cc1)C(=O)N[C@H](Cc1cccnc1)C(=O)N[C@@H](CO)C(=O)N[C@@H](Cc1ccc(O)cc1)C(=O)N[C@H](CCCCNC(=O)c1cccnc1)C(=O)N[C@@H](CC(C)C)C(=O)N[C@@H](CCCCNC(=O)c1cccnc1)C(=O)N1CCC[C@H]1C(=O)N[C@H](C)C(N)=O [compound 24540] (Ac-[d2Nal][dPhe(4-Cl)][d3Pal]SY[dK](Nicotinoyl)LK(Nicotinoyl)P[dA]-NH2) | 82.6 ± 2.8 mm^2 /10
15 | CC(=O)N[C@H](Cc1ccc2ccccc2c1)C(=O)N[C@H](Cc1ccc(Cl)cc1)C(=O)N[C@H](Cc1cccnc1)C(=O)N[C@@H](CO)C(=O)N[C@@H](Cc1ccc(O)cc1)C(=O)N[C@H](CCCCNC(=O)c1cccnc1)C(=O)N[C@@H](CC(C)C)C(=O)N[C@@H](CCCCN)C(=O)N1CCC[C@H]1C(=O)N[C@H](C)C(N)=O [compound 24825] (Ac-[d2Nal][dPhe(4-Cl)][d3Pal]SY[dK](Nicotinoyl)LKP[dA]-NH2) | 119.5 ± 3.2 mm^2 /10
16 | CC(=O)N[C@H](Cc1ccc2ccccc2c1)C(=O)N[C@H](Cc1ccc(Cl)cc1)C(=O)N[C@H](Cc1cccnc1)C(=O)N[C@@H](CO)C(=O)N[C@@H](CCCCNC(=O)c1cccnc1)C(=O)N[C@H](CCCCNC(=O)c1ccccc1)C(=O)N[C@@H](CC(C)C)C(=O)N[C@@H](CCCCNC(C)C)C(=O)N1CCC[C@H]1C(=O)N[C@H](C)C(N)=O [compound 25332] (Ac-[d2Nal][dPhe(4-Cl)][d3Pal]SK(Nicotinoyl)[dK](Bz)L[Lys(iPr)]P[dA]-NH2) | 119.6 mm^2 /10

Same assay, conditions: Table XIV and text, unit not given

Row | Structure (SMILES) | Wheal (wheal response)
17 | CC[C@@H](C)[C@H](NC(=O)[C@@H](CCCCNC(=O)c1ccccn1)NC(=O)[C@H](CCCCNC(=O)c1ccccn1)NC(=O)[C@H](CO)NC(=O)[C@@H](Cc1cccnc1)NC(=O)[C@@H](Cc1ccc(Cl)cc1)NC(=O)[C@@H](Cc1ccc2ccccc2c1)NC(C)=O)C(=O)N[C@@H](CCCCNC(C)C)C(=O)N1CCC[C@H]1C(=O)N[C@H](C)C(N)=O [IBR 25936] (Ac-[d2Nal][dPhe(4-Cl)][d3Pal]SK(Picolinoyl)[dK](Picolinoyl)[aIle][Lys(iPr)]P[dA]-NH2) | 97.9±2.9
18 | CC[C@H](NC(=O)[C@@H](CCCCNC(=O)c1ccccn1)NC(=O)[C@H](CCCCNC(=O)c1ccccn1)NC(=O)[C@H](CO)NC(=O)[C@@H](Cc1cccnc1)NC(=O)[C@@H](Cc1ccc(Cl)cc1)NC(=O)[C@@H](Cc1ccc2ccccc2c1)NC(C)=O)C(=O)N[C@@H](CCCNC(=N)N)C(=O)N1CCC[C@H]1C(=O)N[C@H](C)C(N)=O [compound 26346] (Ac-[d2Nal][dPhe(4-Cl)][d3Pal]SK(Picolinoyl)[dK](Picolinoyl)[Abu]RP[dA]-NH2) | 113.2 ± 5.4

— US5763404A, “Methods for using LHRH antagonists with low histamine release” (priority 1995, dated 1998)
